{
  "source": "paper PMC4650693",
  "about": "“Characterization of two-step deglycosylation via oxidation by glycoside oxidoreductase and defining their subfamily” (Scientific Reports, 2015)",
  "biological_target": "T1, FAD-GO from Rhizobium sp. GIN611 (Rhizobium sp. GIN611, UniProt G9ILI7)",
  "T1 construct": "recombinant, expressed in E. coli Rosetta-gami 2 (DE3, pLysS)",
  "T1 sequence (G9ILI7 1-561)": "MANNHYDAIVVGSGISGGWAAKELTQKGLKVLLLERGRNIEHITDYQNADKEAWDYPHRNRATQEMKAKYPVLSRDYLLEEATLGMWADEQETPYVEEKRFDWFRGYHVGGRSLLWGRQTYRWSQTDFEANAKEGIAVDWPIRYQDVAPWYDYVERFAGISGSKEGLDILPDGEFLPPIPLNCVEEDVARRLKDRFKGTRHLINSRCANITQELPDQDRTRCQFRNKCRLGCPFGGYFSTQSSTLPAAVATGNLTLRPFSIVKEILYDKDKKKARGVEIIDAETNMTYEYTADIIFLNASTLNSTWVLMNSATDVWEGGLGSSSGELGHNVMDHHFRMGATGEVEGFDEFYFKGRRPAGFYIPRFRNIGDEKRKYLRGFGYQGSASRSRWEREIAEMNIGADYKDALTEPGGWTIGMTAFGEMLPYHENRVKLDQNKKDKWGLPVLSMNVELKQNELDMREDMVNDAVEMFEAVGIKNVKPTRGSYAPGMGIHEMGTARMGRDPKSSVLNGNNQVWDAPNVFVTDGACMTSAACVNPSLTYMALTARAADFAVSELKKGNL",
  "assay": "HPLC of oxidation and deglycosylation products",
  "assay_type": "biochemical",
  "settings": "C3-OH of glucose oxidised; FAD enzyme, O2",
  "excerpt": "HPLC of oxidation and deglycosylation products on FAD-GO from Rhizobium sp.",
  "data": [
    {"smiles": "CC(C)=CCC[C@](C)(O[C@@H]1O[C@H](CO)[C@@H](O)[C@H](O)[C@H]1O)[C@H]1CC[C@]2(C)[C@@H]1[C@H](O)C[C@@H]1[C@@]3(C)CC[C@H](O)C(C)(C)[C@@H]3CC[C@]12C", "note": "[CK, Compound K]", "values": [
      {"measurement": "HPLC of oxidation and deglycosylation products", "result": "HPLC chromatogram of enzyme reactions using wild type, H493F mutant or H493A mutant enzyme"}
    ]}
  ]
}
